Measured values: ChEMBL document CHEMBL4417633, “Inhibitory polypeptides specific to WNT inhibitors” (2017)
Activity calls are given as the source filed them. The calls are words filed in the database; no cut-off is given here. Where a SMILES comes first, the peptide text is derived from it.

Key:
[1] = molecular target: T1, Dickkopf-related protein 1 (Homo sapiens) (UniProt O94907); experiment: Inhibition of biotin-labeled human recombinant DKK1 assessed as reduction in DKK1 interaction with LRP-6/Fc incubated overnight by chemiluminescence based Alpha-screen assay
T1 sequence (whole entry): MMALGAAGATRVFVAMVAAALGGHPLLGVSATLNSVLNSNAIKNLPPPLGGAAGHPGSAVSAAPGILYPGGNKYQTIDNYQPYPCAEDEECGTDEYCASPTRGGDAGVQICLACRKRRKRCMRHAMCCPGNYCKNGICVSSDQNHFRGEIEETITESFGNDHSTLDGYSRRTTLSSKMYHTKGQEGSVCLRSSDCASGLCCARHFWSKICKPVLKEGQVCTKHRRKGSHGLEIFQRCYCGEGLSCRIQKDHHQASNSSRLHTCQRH

[2] = molecular target: T2, Dickkopf WNT-signaling pathway inhibitor 1 (Rattus norvegicus) (UniProt A6I0Z0); experiment: Inhibition of biotin-labeled rat recombinant DKK1 assessed as reduction in DKK1 interaction with LRP-6/Fc incubated overnight by chemiluminescence based Alpha-screen assay
T2 sequence (whole entry): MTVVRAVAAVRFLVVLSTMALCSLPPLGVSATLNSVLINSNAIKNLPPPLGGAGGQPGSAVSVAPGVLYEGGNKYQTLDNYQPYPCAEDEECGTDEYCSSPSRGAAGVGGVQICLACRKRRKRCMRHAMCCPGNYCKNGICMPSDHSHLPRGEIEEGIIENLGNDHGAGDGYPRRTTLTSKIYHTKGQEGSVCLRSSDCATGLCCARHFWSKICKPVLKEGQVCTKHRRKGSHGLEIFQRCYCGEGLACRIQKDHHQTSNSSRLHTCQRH

[3] = molecular target: T3, Dickkopf-related protein 1 (Homo sapiens, UniProt O94907); experiment: Inhibition of human DKK1 in MC3T3E1/TetON-Wnt1/STF-Luc#5 cells assessed as DKK1 neutralizing activity by Wnt1-induced TCF/LEF luciferase reporter gene assay
T3 sequence (O94907 whole entry): T1 sequence (whole entry)

Structure (SMILES)	inhibition [1]	inhibition [2]	IC50 [3] [nM]
CC[C@H](C)[C@H](NC(=O)[C@H](CS)NC(=O)[C@H](CC(=O)O)NC(=O)[C@@H]1CCCN1C(=O)[C@H](Cc1ccccc1)NC(=O)CNC(=O)[C@H](CC(=O)O)NC(=O)[C@H](CS)NC(=O)[C@H](CCCNC(=N)N)NC(=O)[C@H](Cc1c[nH]c2ccccc12)NC(=O)[C@H](CCC(=O)O)NC(=O)[C@H](CCSC)NC(=O)[C@@H]1CCCN1C(=O)[C@H](Cc1ccc(O)cc1)NC(=O)[C@H](CS)NC(=O)[C@H](Cc1cnc[nH]1)NC(=O)[C@@H]1CCCN1C(=O)[C@H](Cc1cnc[nH]1)NC(=O)[C@H](CC(N)=O)NC(=O)[C@H](CCCNC(=N)N)NC(=O)[C@H](CS)NC(=O)[C@H](CCC(N)=O)NC(=O)[C@H](Cc1ccccc1)NC(=O)[C@H](Cc1ccc(O)cc1)NC(=O)[C@H](CO)NC(=O)[C@@H](NC(=O)[C@@H]1CCCN1C(=O)[C@@H](N)CS)C(C)C)C(=O)N[C@@H](CC(=O)O)C(=O)NCC(=O)N[C@@H](CO)C(=O)N[C@@H](CC(=O)O)C(=O)N[C@@H](CCC(=O)O)C(=O)N[C@@H](CCC(=O)O)C(=O)NCC(=O)N[C@@H](CS)C(=O)NCC(=O)NCC(=O)NCC(=O)NCC(=O)O (H-CPVSYFQCRNHPHCYPMEWRCDGFPDCIDGSDEEGCGGGG-OH)	Active	Active	0.8 to 3
CC[C@H](C)[C@H](NC(=O)[C@H](CCC(=O)O)NC(=O)[C@H](CC(=O)O)NC(=O)[C@H](CO)NC(=O)[C@H](C)NC(=O)[C@H](CC(=O)O)NC(=O)[C@@H](NC(=O)[C@H](CS)NC(=O)[C@H](CC(=O)O)NC(=O)[C@@H]1CCCN1C(=O)[C@H](Cc1ccccc1)NC(=O)CNC(=O)[C@H](CC(=O)O)NC(=O)[C@H](CS)NC(=O)[C@H](CCCNC(=N)N)NC(=O)[C@H](Cc1c[nH]c2ccccc12)NC(=O)[C@H](CCC(=O)O)NC(=O)[C@H](CCSC)NC(=O)[C@@H]1CCCN1C(=O)[C@H](Cc1ccc(O)cc1)NC(=O)[C@H](CS)NC(=O)[C@H](Cc1cnc[nH]1)NC(=O)[C@@H]1CCCN1C(=O)[C@H](Cc1cnc[nH]1)NC(=O)[C@H](CC(N)=O)NC(=O)[C@H](CCCNC(=N)N)NC(=O)[C@H](CS)NC(=O)[C@H](CCC(N)=O)NC(=O)[C@H](Cc1ccccc1)NC(=O)[C@H](Cc1ccc(O)cc1)NC(=O)[C@H](CO)NC(=O)[C@@H](NC(=O)[C@@H]1CCCN1C(=O)[C@@H](N)CS)C(C)C)C(C)C)C(=O)NCC(=O)N[C@@H](CS)C(=O)NCC(=O)NCC(=O)NCC(=O)NCC(=O)O (H-CPVSYFQCRNHPHCYPMEWRCDGFPDCVDASDEIGCGGGG-OH)	Active	Active	0.8 to 3
CSCC[C@H](NC(=O)[C@@H]1CCCN1C(=O)[C@H](Cc1ccc(O)cc1)NC(=O)[C@H](CS)NC(=O)[C@H](Cc1cnc[nH]1)NC(=O)[C@@H]1CCCN1C(=O)[C@H](Cc1cnc[nH]1)NC(=O)[C@H](CCCNC(=N)N)NC(=O)[C@H](CCCNC(=N)N)NC(=O)[C@H](CS)NC(=O)[C@H](CCC(N)=O)NC(=O)[C@H](Cc1ccccc1)NC(=O)[C@H](Cc1ccc(O)cc1)NC(=O)[C@H](CO)NC(=O)[C@H](C)NC(=O)[C@@H]1CCCN1C(=O)[C@@H](N)CS)C(=O)N[C@@H](CCC(=O)O)C(=O)N[C@@H](Cc1c[nH]c2ccccc12)C(=O)N[C@@H](CCCNC(=N)N)C(=O)N[C@@H](CS)C(=O)N[C@@H](CC(=O)O)C(=O)NCC(=O)N[C@@H](Cc1ccccc1)C(=O)N1CCC[C@H]1C(=O)N[C@@H](CC(=O)O)C(=O)N[C@@H](CS)C(=O)N[C@@H](CC(C)C)C(=O)N[C@@H](CC(=O)O)C(=O)NCC(=O)N[C@@H](CO)C(=O)N[C@@H](CC(=O)O)C(=O)N[C@@H](CCC(=O)O)C(=O)N[C@@H](CCC(=O)O)C(=O)NCC(=O)N[C@@H](CS)C(=O)NCC(=O)NCC(=O)NCC(=O)NCC(=O)O (H-CPASYFQCRRHPHCYPMEWRCDGFPDCLDGSDEEGCGGGG-OH)	Active	Active	0.8 to 3
CC[C@H](C)[C@H](NC(=O)[C@H](CS)NC(=O)[C@H](CC(=O)O)NC(=O)[C@@H]1CCCN1C(=O)[C@H](Cc1ccccc1)NC(=O)CNC(=O)[C@H](CC(=O)O)NC(=O)[C@H](CS)NC(=O)[C@H](CCCNC(=N)N)NC(=O)[C@H](Cc1c[nH]c2ccccc12)NC(=O)[C@H](CCC(=O)O)NC(=O)[C@H](CCSC)NC(=O)[C@@H]1CCCN1C(=O)[C@H](Cc1ccc(O)cc1)NC(=O)[C@H](CS)NC(=O)[C@H](Cc1cnc[nH]1)NC(=O)[C@@H]1CCCN1C(=O)[C@H](Cc1cnc[nH]1)NC(=O)[C@H](CCCCN)NC(=O)[C@H](CCCNC(=N)N)NC(=O)[C@H](CS)NC(=O)[C@H](CCC(N)=O)NC(=O)[C@H](Cc1ccccc1)NC(=O)[C@H](Cc1ccc(O)cc1)NC(=O)[C@H](CO)NC(=O)[C@H](C)NC(=O)[C@@H]1CCCN1C(=O)[C@@H](N)CS)C(=O)N[C@@H](CC(=O)O)C(=O)NCC(=O)N[C@@H](CO)C(=O)N[C@@H](CC(=O)O)C(=O)N[C@@H](CCC(=O)O)C(=O)N[C@@H](CCC(=O)O)C(=O)N[C@@H](CCCNC(=N)N)C(=O)N[C@@H](CS)C(=O)NCC(=O)NCC(=O)NCC(=O)NCC(=O)O (H-CPASYFQCRKHPHCYPMEWRCDGFPDCIDGSDEERCGGGG-OH)	Active	Active	0.8 to 3
CC[C@H](C)[C@H](NC(=O)[C@H](CS)NC(=O)[C@H](CC(=O)O)NC(=O)[C@@H]1CCCN1C(=O)[C@H](Cc1ccccc1)NC(=O)CNC(=O)[C@H](CC(=O)O)NC(=O)[C@H](CS)NC(=O)[C@H](CCCNC(=N)N)NC(=O)[C@H](Cc1c[nH]c2ccccc12)NC(=O)[C@H](CCC(=O)O)NC(=O)[C@H](CCSC)NC(=O)[C@@H]1CCCN1C(=O)[C@H](Cc1ccc(O)cc1)NC(=O)[C@H](CS)NC(=O)[C@H](Cc1cnc[nH]1)NC(=O)[C@@H]1CCCN1C(=O)[C@H](CC(C)C)NC(=O)[C@H](CC(N)=O)NC(=O)CNC(=O)[C@H](CS)NC(=O)[C@H](CCC(N)=O)NC(=O)[C@H](Cc1ccccc1)NC(=O)[C@H](Cc1ccc(O)cc1)NC(=O)[C@H](CO)NC(=O)[C@H](C)NC(=O)[C@@H]1CCCN1C(=O)[C@@H](N)CS)C(=O)N[C@@H](CC(=O)O)C(=O)NCC(=O)N[C@@H](CO)C(=O)N[C@@H](CC(=O)O)C(=O)N[C@@H](CCC(=O)O)C(=O)N[C@@H](CCCCN)C(=O)NCC(=O)N[C@@H](CS)C(=O)NCC(=O)NCC(=O)NCC(=O)NCC(=O)O (H-CPASYFQCGNLPHCYPMEWRCDGFPDCIDGSDEKGCGGGG-OH)	Active	Active	0.8 to 3

The remaining lines, values ahead:

inhibition [1]	inhibition [2]	IC50 [3] [nM]	Structure (SMILES)
Active	Active	0.8 to 3	CSCC[C@H](NC(=O)[C@@H]1CCCN1C(=O)[C@H](Cc1ccc(O)cc1)NC(=O)[C@H](CS)NC(=O)[C@H](Cc1cnc[nH]1)NC(=O)[C@@H]1CCCN1C(=O)[C@H](Cc1cnc[nH]1)NC(=O)[C@H](CC(N)=O)NC(=O)[C@H](CCCNC(=N)N)NC(=O)[C@H](CS)NC(=O)[C@H](CCC(N)=O)NC(=O)[C@H](Cc1ccccc1)NC(=O)[C@H](Cc1ccc(O)cc1)NC(=O)[C@H](CO)NC(=O)[C@H](CCC(=O)O)NC(=O)[C@@H]1CCCN1C(=O)[C@@H](N)CS)C(=O)N[C@@H](CCC(=O)O)C(=O)N[C@@H](Cc1c[nH]c2ccccc12)C(=O)N[C@@H](CCCNC(=N)N)C(=O)N[C@@H](CS)C(=O)N[C@@H](CC(=O)O)C(=O)NCC(=O)N[C@@H](Cc1ccccc1)C(=O)N1CCC[C@H]1C(=O)N[C@@H](CC(=O)O)C(=O)N[C@@H](CS)C(=O)N[C@H](C(=O)N[C@@H](CC(=O)O)C(=O)NCC(=O)N[C@@H](CO)C(=O)N[C@@H](CC(=O)O)C(=O)N[C@@H](CCC(=O)O)C(=O)N[C@@H](CC(C)C)C(=O)N[C@@H](CC(=O)O)C(=O)N[C@@H](CS)C(=O)NCC(=O)NCC(=O)NCC(=O)NCC(=O)O)C(C)C (H-CPESYFQCRNHPHCYPMEWRCDGFPDCVDGSDELDCGGGG-OH)
Active	Active	0.8 to 3	CSCC[C@H](NC(=O)[C@@H]1CCCN1C(=O)[C@H](Cc1ccc(O)cc1)NC(=O)[C@H](CS)NC(=O)[C@H](Cc1cnc[nH]1)NC(=O)[C@@H]1CCCN1C(=O)[C@H](Cc1cnc[nH]1)NC(=O)[C@H](CC(N)=O)NC(=O)[C@H](CCCNC(=N)N)NC(=O)[C@H](CS)NC(=O)[C@H](CCCCN)NC(=O)[C@H](Cc1ccccc1)NC(=O)[C@H](Cc1ccc(O)cc1)NC(=O)[C@H](CO)NC(=O)[C@H](C)NC(=O)[C@@H]1CCCN1C(=O)[C@@H](N)CS)C(=O)N[C@@H](CCC(=O)O)C(=O)N[C@@H](Cc1c[nH]c2ccccc12)C(=O)N[C@@H](CCCNC(=N)N)C(=O)N[C@@H](CS)C(=O)N[C@@H](CC(=O)O)C(=O)NCC(=O)N[C@@H](Cc1ccccc1)C(=O)N[C@@H](C)C(=O)N[C@@H](CC(=O)O)C(=O)N[C@@H](CS)C(=O)N[C@H](C(=O)N[C@@H](CC(=O)O)C(=O)NCC(=O)N[C@@H](CO)C(=O)N[C@@H](CC(=O)O)C(=O)N[C@@H](CCC(=O)O)C(=O)N[C@@H](CC(C)C)C(=O)N[C@@H](CO)C(=O)N[C@@H](CS)C(=O)NCC(=O)NCC(=O)NCC(=O)NCC(=O)O)C(C)C (H-CPASYFKCRNHPHCYPMEWRCDGFADCVDGSDELSCGGGG-OH)
